# According to ChEMBL document CHEMBL5346925, “3,4-Dihydrobenzo[e][1,2,3]oxathiazine 2,2-dioxide analogs act as potential AMPA receptor potentiators with antidepressant activity” (Eur J Med Chem, 2023):
# Columns and labels:
# [1] = target: T1, Glutamate receptor ionotropic, AMPA (Rattus norvegicus) (UniProt P19491+P19492+P19493+P19490); assay: Agonist activity at AMPA receptor in rat Primary neuron cells assessed as increase in fluorescence level at 1 uM incubated for 1 hr by calcium 2+ influx assay relative to s-AMPA coupled TAK-137; type: cell-based
# [2] = target: T1, Glutamate receptor ionotropic, AMPA (Rattus norvegicus); assay: Agonist activity at AMPA receptor in rat Primary neuron cells assessed as potentiation of s-AMPA induced calcium flux at 1 uM incubated for 1 hr by calcium 2+ influx assay relative to s-AMPA coupled TAK-137; type: cell-based
# [3] = target: T1, Glutamate receptor ionotropic, AMPA (Rattus norvegicus); assay: Agonist activity at AMPA receptor in rat Primary neuron cells relative to control; type: cell-based; conditions: filed as agonist
# [4] = target: Glutamate receptor ionotropic, AMPA (Rattus norvegicus, UniProt P19490+P19491+P19492+P19493); assay: Agonist activity at AMPA receptor in rat Primary neuron cells; type: cell-based
# [5] = AUC (0 to infinity) in Sprague-Dawley rat at 0.3 mg/kg, iv by LC-MS/MS analysis; type: ADME, organism-based; design: dose 0.3 mg/kg, route iv; conditions: in vivo
# [6] = Tmax in Sprague-Dawley rat at 3 mg/kg, po by LC-MS/MS analysis; type: ADME, organism-based; conditions: in vivo
# [7] = Cmax in Sprague-Dawley rat at 0.3 mg/kg, iv by LC-MS/MS analysis; type: ADME, organism-based; design: dose 0.3 mg/kg, route iv; conditions: in vivo
# [8] = MRT (0 to infinity) in Sprague-Dawley rat at 0.3 mg/kg, iv by LC-MS/MS analysis; type: ADME, organism-based; conditions: in vivo
# [9] = AUC (0 to t) in Sprague-Dawley rat at 0.3 mg/kg, iv by LC-MS/MS analysis; type: ADME, organism-based; design: dose 0.3 mg/kg, route iv; conditions: in vivo
# [10] = MRT (0 to t) in Sprague-Dawley rat at 3 mg/kg, po by LC-MS/MS analysis; type: ADME, organism-based; conditions: in vivo
# [11] = AUC (0 to t) in Sprague-Dawley rat at 3 mg/kg, po by LC-MS/MS analysis; type: ADME, organism-based; design: dose 3 mg/kg, route po; conditions: in vivo
# [12] = Clearance in Sprague-Dawley rat at 0.3 mg/kg, iv by LC-MS/MS analysis; type: ADME, organism-based; conditions: in vivo
# [13] = MRT (0 to t) in Sprague-Dawley rat at 0.3 mg/kg, iv by LC-MS/MS analysis; type: ADME, organism-based; conditions: in vivo
# [14] = AUC (0 to infinity) in Sprague-Dawley rat at 3 mg/kg, po by LC-MS/MS analysis; type: ADME, organism-based; design: dose 3 mg/kg, route po; conditions: in vivo
# [15] = Half life in Sprague-Dawley rat at 0.3 mg/kg, iv by LC-MS/MS analysis; type: ADME, organism-based; conditions: in vivo
# [16] = MRT (0 to infinity) in Sprague-Dawley rat at 3 mg/kg, po by LC-MS/MS analysis; type: ADME, organism-based; conditions: in vivo
# [17] = Half life in Sprague-Dawley rat at 3 mg/kg, po by LC-MS/MS analysis; type: ADME, organism-based; conditions: in vivo
# [18] = Cmax in Sprague-Dawley rat at 3 mg/kg, po by LC-MS/MS analysis; type: ADME, organism-based; design: dose 3 mg/kg, route po; conditions: in vivo
# [19] = Volume of distribution at steady state in Sprague-Dawley rat at 0.3 mg/kg, iv by LC-MS/MS analysis; type: ADME, organism-based; conditions: in vivo, read-out: Vdss
# [20] = Oral bioavailability in Sprague-Dawley rat at 3 mg/kg by LC-MS/MS analysis; type: ADME, organism-based; conditions: in vivo
# [21] = Tmax in Sprague-Dawley rat at 0.3 mg/kg, iv by LC-MS/MS analysis; type: ADME, organism-based; conditions: in vivo
Activity [1] [%],Activity [2] [%],Activity ([2]; filed as agonist) [%],SMILES,further results
6.3,37.7,–,Cc1ccc(-c2ccc(-c3cccc4c3OS(=O)(=O)NC4)cc2F)cc1,–
4.2,–,58.5,COc1cccc(-c2ccc(-c3cccc4c3OS(=O)(=O)NC4C)cc2)c1 (stereo not drawn),–
19.2,–,98.4,COc1ccc(-c2cccc3c2OS(=O)(=O)NC3)cc1F,–
0.5,1.4,–,O=S1(=O)NCc2cc(-c3ccc(Oc4ccccc4)cc3)ccc2O1,–
1.4,–,72.2,O=S1(=O)NCc2cccc(-c3ccc(OC(F)(F)F)cc3)c2O1,–
8.2,10.3,–,COc1ccc(-c2cccc3c2OS(=O)(=O)NC3)c(F)c1,–
3.5,–,66,Cc1ccc(-c2ccc(-c3cccc4c3OS(=O)(=O)NC4)cc2)cc1,–
0.1,–,55.3,Cc1ccc(-c2ccc(-c3cccc4c3OS(=O)(=O)NC4C)cc2)cc1 (stereo not drawn),–
2.5,38.7,–,O=S1(=O)NCc2cccc(-c3ccc(-c4ccc(F)c(F)c4)cc3)c2O1,–
0.8,0,–,O=S1(=O)NCc2c(cccc2-c2ccc(Oc3ccccc3)cc2)O1,–
0.8,0.7,–,O=S1(=O)NCc2cccc(-c3ccc(-c4ccc(C(F)(F)F)cc4)cc3)c2O1,–
-2.1,3,–,CC(C)Oc1ccc(-c2ccc(-c3cccc4c3OS(=O)(=O)NC4)cc2)cc1,–
7.2,23.9,–,O=S1(=O)NCc2cccc(-c3ccc(-c4ccc(C(F)F)cc4)cc3)c2O1,–
1,1.9,–,O=S1(=O)NCc2cccc(-c3cccc(Oc4ccccc4)c3)c2O1,–
-3.7,–,82.4,COc1ccc(-c2ccc(-c3cccc4c3OS(=O)(=O)NC4)cc2)cc1,Emax [3]: 79%; EC50 [4]: 1.24 µM
36.5,–,48,O=S1(=O)NCc2cccc(-c3ccc(F)cc3)c2O1,–
3.5,–,72.1,O=S1(=O)NCc2cccc(-c3ccc(-c4cccc(F)c4)cc3)c2O1,–
2.9,23.7,–,N#Cc1ccc(-c2cccc3c2OS(=O)(=O)NC3)cc1,–
19.5,–,90.7,O=S1(=O)NCc2cccc(-c3ccc4c(c3)OCCO4)c2O1,–
10.5,–,69.2,CC1NS(=O)(=O)Oc2c(-c3ccc(-c4ccccc4F)cc3)cccc21 (stereo not drawn),–
3.2,–,67.9,COc1ccc(-c2ccc(-c3cccc4c3OS(=O)(=O)NC4)c(F)c2)cc1,–
4.1,–,77.3,O=S1(=O)NCc2cccc(-c3ccc(Oc4ccccc4)cc3)c2O1,AUC(0-inf) [5]: 136 ng·h/mL; Tmax [6]: 0.5 h; Cmax [7]: 246 ng/mL; Emax [3]: 169%; MRT inf [8]: 0.81 h; EC50 [4]: 1.63 µM; AUC(0-t) [9]: 134 ng·h/mL; MRT last [10]: 2.63 h; AUC(0-t) [11]: 265 ng·h/mL; clearance [12]: 37.4 mL/min/kg; MRT last [13]: 0.7 h; AUC(0-inf) [14]: 328 ng·h/mL; half-life [15]: 1.27 h; MRT inf [16]: 4.56 h; half-life [17]: 3.12 h; Cmax [18]: 96.1 ng/mL; Vd [19]: 1.79 L/kg; bioavailability [20]: 19.8%; Tmax [21]: 4.8 min

Activity [1] [%],Activity [2] [%],Activity ([2]; filed as agonist) [%],SMILES,further results
-2,-1.3,–,CC(C)(C)c1ccc(-c2ccc(-c3cccc4c3OS(=O)(=O)NC4)cc2)cc1,–
1.4,–,40.7,Cc1ccc(-c2ccc(-c3cccc4c3OS(=O)(=O)NC4)c(F)c2)cc1,–
17.1,–,92,O=S1(=O)NCc2cccc(-c3ccc4c(c3)OCO4)c2O1,–
2.1,–,50.7,COc1ccc(-c2ccc(-c3cccc4c3OS(=O)(=O)NC4C)cc2)cc1 (stereo not drawn),–
8.5,–,65.5,COc1ccccc1-c1ccc(-c2cccc3c2OS(=O)(=O)NC3C)cc1 (stereo not drawn),–
8.6,–,62.4,CC1NS(=O)(=O)Oc2c(-c3ccc(-c4cccc(F)c4)cc3)cccc21 (stereo not drawn),–
14,–,81.3,O=S1(=O)NCc2cccc(-c3ccc(C(F)(F)F)cc3)c2O1,–
7.3,–,81.7,Cc1ccc(-c2cccc3c2OS(=O)(=O)NC3)cc1,–
8.1,–,85.3,O=S1(=O)NCc2cccc(-c3ccc(-c4ccc(F)cc4)cc3)c2O1,–
6.2,–,69.6,O=S1(=O)NCc2cccc(-c3ccc(-c4ccccc4)cc3)c2O1,–
3.1,2.6,–,COc1c(C)cc(-c2cccc3c2OS(=O)(=O)NC3)cc1C,–
13.2,–,107,CC(C)Oc1ccc(-c2cccc3c2OS(=O)(=O)NC3)cc1,–
29.4,–,106,CC(C)(C)c1ccc(-c2cccc3c2OS(=O)(=O)NC3)cc1,–
2.5,–,56.4,COc1cccc(-c2ccc(-c3cccc4c3OS(=O)(=O)NC4)cc2)c1,–
0.7,-0.8,–,O=S1(=O)NCc2ccc(-c3ccc(Oc4ccccc4)cc3)cc2O1,–
2.1,–,83.8,COc1ccccc1-c1ccc(-c2cccc3c2OS(=O)(=O)NC3)cc1,Emax [3]: 125%; EC50 [4]: 0.379 µM
-1.5,-3,–,O=S1(=O)NCc2cccc(-c3ccc(-c4ccc(OC(F)(F)F)cc4)cc3)c2O1,–
1,–,89.3,COc1ccc(-c2cccc3c2OS(=O)(=O)NC3)cc1,Emax [3]: 99%; EC50 [4]: 0.555 µM
3.7,–,59.6,CC1NS(=O)(=O)Oc2c(-c3ccc(-c4ccc(F)cc4)cc3)cccc21 (stereo not drawn),–
-0.5,1,–,O=S1(=O)NCc2cccc(-c3ccccc3Oc3ccccc3)c2O1,–
5.3,–,55.8,COc1ccc(-c2ccc(-c3cccc4c3OS(=O)(=O)NC4)cc2F)cc1,–
1.9,0.6,–,COc1ccc(-c2cccc3c2OS(=O)(=O)NC3)cc1C(F)(F)F,–
